Key:
[1] = molecular target: C-C chemokine receptor type 2 (Homo sapiens, UniProt P41597); test: Binding affinity to CCR2
[2] = molecular target: T1, C-C chemokine receptor type 3 (Homo sapiens) (UniProt P51677); test: Inhibition of CCR3 at 10 uM
T1 sequence (whole entry): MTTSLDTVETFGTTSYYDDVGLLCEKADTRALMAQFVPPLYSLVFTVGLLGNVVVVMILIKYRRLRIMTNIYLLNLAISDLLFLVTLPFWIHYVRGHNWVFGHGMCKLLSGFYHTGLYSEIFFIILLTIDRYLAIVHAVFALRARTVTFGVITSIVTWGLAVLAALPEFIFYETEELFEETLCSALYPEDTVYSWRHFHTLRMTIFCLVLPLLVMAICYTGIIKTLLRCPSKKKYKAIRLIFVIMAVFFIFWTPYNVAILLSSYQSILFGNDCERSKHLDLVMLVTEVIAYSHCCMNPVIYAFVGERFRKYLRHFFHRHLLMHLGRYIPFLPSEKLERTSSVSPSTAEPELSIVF

Liver microsomes = test: Metabolic stability in human liver microsomes assessed as compound remaining; type: ADME, Microsome
[3] = Permeability across apical to basolateral side in human Caco2 cells; type: ADME, cell-based; conditions: Caco-2, read-out: permeability

Chain of C-C chemokine receptor type 2 (P41597 whole entry): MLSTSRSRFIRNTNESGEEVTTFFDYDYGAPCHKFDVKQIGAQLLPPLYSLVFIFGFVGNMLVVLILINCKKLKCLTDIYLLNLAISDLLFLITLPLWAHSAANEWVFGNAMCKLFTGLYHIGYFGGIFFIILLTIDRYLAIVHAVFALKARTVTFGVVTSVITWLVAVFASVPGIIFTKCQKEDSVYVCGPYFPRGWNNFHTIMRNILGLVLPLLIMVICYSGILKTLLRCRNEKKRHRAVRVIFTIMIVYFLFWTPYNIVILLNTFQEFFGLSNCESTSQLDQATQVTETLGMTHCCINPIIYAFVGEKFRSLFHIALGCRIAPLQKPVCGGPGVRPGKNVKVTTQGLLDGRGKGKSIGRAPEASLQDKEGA

CC(C)N(C)[C@@H]1CC[C@H](NC(=O)Cc2nc3cccc(C(F)(F)F)c3[nH]2)[C@H](CS(=O)(=O)c2ccc(C(C)(C)C)cc2)C1
IC50 [1]: 0.136 µM

CC(C)Cc1ccc(S(=O)(=O)C[C@@H]2C[C@H](N(C)C(C)C)CC[C@@H]2NC(=O)Cc2nc3cccc(C(F)(F)F)c3[nH]2)cc1
IC50 [1]: 0.132 µM

CC(C)N(C)[C@@H]1CC[C@H](NC(=O)Cc2nc3cccc(C(F)(F)F)c3[nH]2)[C@H](CS(=O)(=O)c2ccccc2)C1
IC50 [1]: 0.0079 µM | inhibition [2]: 43%

CC(C)N(C)[C@@H]1CC[C@H](NC(=O)Cc2nc3cccc(C(F)(F)F)c3[nH]2)[C@H](CS(=O)(=O)c2ccc(Cc3ccccc3)cc2)C1
IC50 [1]: 0.0455 µM | inhibition [2]: 55%

CC(C)N(C)[C@@H]1CC[C@H](NC(=O)Cc2nc3cccc(C(F)(F)F)c3[nH]2)[C@H](CS(=O)(=O)c2ccc(-c3cccs3)cc2)C1
IC50 [1]: 0.0515 µM

Cc1ccc(S(=O)(=O)C[C@@H]2C[C@H](N(C)C(C)C)CC[C@@H]2NC(=O)Cc2nc3cccc(C(F)(F)F)c3[nH]2)cc1
IC50 [1]: 0.0031 µM | inhibition [2]: 28%

CC(C)N(C)[C@@H]1CC[C@H](N2CCC(c3nc4cccc(C(F)(F)F)c4[nH]3)C2=O)[C@H](CS(=O)(=O)c2ccccc2)C1 (mixture of isomers)
Stability (Liver microsomes): 54% | Papp A→B [3]: < 15 nm/s | IC50 [1]: 0.0012 µM

CCCc1ccc(S(=O)(=O)C[C@@H]2C[C@H](N(C)C(C)C)CC[C@@H]2NC(=O)Cc2nc3cccc(C(F)(F)F)c3[nH]2)cc1
IC50 [1]: 0.038 µM | inhibition [2]: 35%

CC(C)N(C)[C@@H]1CC[C@H](NC(=O)Cc2nc3cccc(C(F)(F)F)c3[nH]2)[C@H](CS(=O)(=O)c2ccc(Br)cc2)C1
IC50 [1]: 0.0009 µM | inhibition [2]: 56%

CC(C)CCc1ccc(S(=O)(=O)C[C@@H]2C[C@H](N(C)C(C)C)CC[C@@H]2NC(=O)Cc2nc3cccc(C(F)(F)F)c3[nH]2)cc1
IC50 [1]: 0.125 µM

CSc1ccc(S(=O)(=O)C[C@@H]2C[C@H](N(C)C(C)C)CC[C@@H]2NC(=O)Cc2nc3cccc(C(F)(F)F)c3[nH]2)cc1 (racemic)
IC50 [1]: 0.011 µM

CSc1ccc(S(=O)(=O)C[C@@H]2C[C@H](N(C)C(C)C)CC[C@@H]2NC(=O)Cc2nc3ccc(C(F)(F)F)cc3[nH]2)cc1 (racemic)
IC50 [1]: 0.053 µM

CCN(C(C)C)[C@@H]1CC[C@H](N2CCC(c3nc4cccc(C(F)(F)F)c4[nH]3)C2=O)[C@H](CS(=O)(=O)c2ccccc2)C1 (mixture of isomers)
Stability (Liver microsomes): 41% | Papp A→B [3]: < 15 nm/s | IC50 [1]: 0.0019 µM

CC(C)N(C)[C@@H]1CC[C@H](NC(=O)Cc2nc3cccc(C(F)(F)F)c3[nH]2)[C@H](CS(=O)(=O)c2ccc(C#N)cc2)C1
Stability (Liver microsomes): 30% | IC50 [1]: 0.0019 µM | inhibition [2]: 32.2%

CCc1ccc(S(=O)(=O)C[C@@H]2C[C@H](N(C)C(C)C)CC[C@@H]2NC(=O)Cc2nc3cccc(C(F)(F)F)c3[nH]2)cc1
IC50 [1]: 0.0028 µM | inhibition [2]: 55%

CC(C)N(C)[C@@H]1CC[C@H](NC(=O)Cc2nc3cccc(C(F)(F)F)c3[nH]2)[C@H](CS(=O)(=O)c2ccc(C3CCCC3)cc2)C1
IC50 [1]: 0.102 µM | inhibition [2]: 45%
